In US20240083857A1, “2-Methyl-Quinazolines” (Bayer Pharma Aktiengesellschaft, priority 2017, published 2024):
Structures can show the parent of a compound that is named as a salt.

Experiments:
[1] = molecular target: K-Ras^G12C : hSOS1 interaction (Homo sapiens, UniProt Q07889); experiment: Biochemical assay 1: K-Ras^G12C interaction assay with hSOS1 (HTRF); type: binding; conditions: read-out: Assay 1 (KRAS-SOS Interaction) activity expressed as IC50
[2] = molecular target: human SOS1 (loading of human K-Ras^G12C-GDP with fluorescent GTP-analog) (Homo sapiens, UniProt Q07889); experiment: Biochemical assay 3: K-Ras^G12C activation assay by hSOS1 (HTRF); conditions: no GTP; for IC50: read-out: Assay 3 (KRAS-Activation by SOS no GTP) activity expressed as IC50; for inhibition at 20 µM: read-out: Assay 3 (KRAS-Activation by SOS no GTP) activity expressed as % inhibition at 20 μM

Row | SMILES | IC50 [1] | IC50 [2] | inhibition at 20 µM [2]
1 | COc1cc2nc(C)nc(NC(C)c3cc(-c4ccn(CCO)n4)cs3)c2cc1OC (stereo not drawn) [Example 273, 2-[3-(5-{1-[(6,7-dimethoxy-2-methylquinazolin-4-yl)amino]ethyl}thiophen-3-yl)-1H-pyrazol-1-yl]ethanol] | 2320 nM | 3630 nM | 
2 | COc1cc2nc(C)nc(N[C@H](C)c3cccc(-c4ccc(F)cc4CN)c3)c2cc1OC [Example 274, N-{(1R)-1-[2′-(aminomethyl)-4′-fluorobiphenyl-3-yl]ethyl}-6,7-dimethoxy-2-methylquinazolin-4-amine] | 130 nM | 214 nM | 
3 | COc1cc2nc(C)nc(NC(C)c3ccc(-c4ccc(CN)o4)s3)c2cc1OC (stereo not drawn) [Example 275, N-[1-{5-[5-(aminomethyl)furan-2-yl]thiophen-2-yl}ethyl]-6,7-dimethoxy-2-methylquinazolin-4-amine] | 2800 nM | 6370 nM | 
4 | COc1cc2nc(C)nc(NC(C)c3ccc(-c4ccc(CN)s4)s3)c2cc1OC (stereo not drawn) [Example 276, N-{1-[5′-(aminomethyl)-2,2′-bithiophen-5-yl]ethyl}-6,7-dimethoxy-2-methylquinazolin-4-amine] | 1410 nM | 2160 nM | 
5 | COc1cc2nc(C)nc(NC(C)c3ccc(-c4ccccc4CNCC(=O)c4c[nH]c5ccccc45)s3)c2cc1OC (stereo not drawn) [Example 277, 2-{[2-(5-{1-[(6,7-dimethoxy-2-methylquinazolin-4-yl)amino]ethyl}thiophen-2-yl)benzyl]amino}-1-(1H-indol-3-yl)ethanone] | 214 nM | 263 nM | 
6 | COc1cc2nc(C)nc(NC(C)c3ccc(-c4cccc5sc(C(N)=O)c(N)c45)s3)c2cc1OC (stereo not drawn) [Example 278, 3-amino-4-(5-{1-[(6,7-dimethoxy-2-methylquinazolin-4-yl)amino]ethyl}thiophen-2-yl)-1-benzothiophene-2-carboxamide] | 12500 nM |  | 43%
7 | COC(=O)CNCc1ccccc1-c1ccc(C(C)Nc2nc(C)nc3cc(OC)c(OC)cc23)s1 (stereo not drawn) [Example 281, methyl N-[2-(5-{1-[(6,7-dimethoxy-2-methylquinazolin-4-yl)amino]ethyl}thiophen-2-yl)benzyl]glycinate] | 559 nM | 367 nM | 
8 | COc1cc2nc(C)nc(NC(C)c3ccc(-c4ccccc4CNCC(=O)N4CCOCC4)s3)c2cc1OC (stereo not drawn) [Example 285, 2-{[2-(5-{1-[(6,7-dimethoxy-2-methylquinazolin-4-yl)amino]ethyl}thiophen-2-yl)benzyl]amino}-1-(morpholin-4-yl)ethanone] | 203 nM | 161 nM | 
9 | COc1cc2nc(C)nc(NC(C)c3ccc(-c4cc(C)n(C)c4C#N)s3)c2cc1OC (stereo not drawn) [Example 286, 3-(5-{1-[(6,7-dimethoxy-2-methylquinazolin-4-yl)amino]ethyl}thiophen-2-yl)-1,5-dimethyl-1H-pyrrole-2-carbonitrile] | 16700 nM |  | 36%
10 | COc1cc2nc(C)nc(NC(C)c3ccc(-c4cscc4C#N)s3)c2cc1OC (stereo not drawn) [Example 287, 5-{1-[(6,7-dimethoxy-2-methylquinazolin-4-yl)amino]ethyl}-2,3′-bithiophene-4′-carbonitrile] | 5880 nM | 5760 nM | 
11 | CCN(CC)Cc1ccccc1-c1ccc(C(C)Nc2nc(C)nc3cc(OC)c(OC)cc23)s1 (stereo not drawn) [Example 288, N-[1-(5-{2-[(diethylamino)methyl]phenyl}thiophen-2-yl)ethyl]-6,7-dimethoxy-2-methylquinazolin-4-amine] | 170 nM | 247 nM | 
12 | COc1cc2nc(C)nc(NC(C)c3ccc(-c4ccccc4CN4CCCC(C(N)=O)C4)s3)c2cc1OC (stereo not drawn) [Example 290, 1-[2-(5-{1-[(6,7-dimethoxy-2-methylquinazolin-4-yl)amino]ethyl}thiophen-2-yl)benzyl]piperidine-3-carboxamide] | 176 nM | 159 nM | 
13 | COc1cc2nc(C)nc(NC(C)c3ccc(-c4ccccc4CN(C)CC(F)F)s3)c2cc1OC (stereo not drawn) [Example 291, N-{1-[5-(2-{[(2,2-difluoroethyl)(methyl)amino]methyl}phenyl)thiophen-2-yl]ethyl}-6,7-dimethoxy-2-methylquinazolin-4-amine] | 1120 nM | 2230 nM | 
14 | COc1cc2nc(C)nc(NC(C)c3ccc(-c4cc(Cl)ccc4CN)s3)c2cc1OC (stereo not drawn) [Example 292, N-[1-{5-[2-(aminomethyl)-5-chlorophenyl]thiophen-2-yl}ethyl]-6,7-dimethoxy-2-methylquinazolin-4-amine] | 31.5 nM | 41.3 nM | 
15 | COc1cc2nc(C)nc(NC(C)c3ccc(-c4ccc(F)cc4CNC(=O)c4ncc[nH]4)s3)c2cc1OC (stereo not drawn) [Example 293, N-[2-(5-{1-[(6,7-dimethoxy-2-methylquinazolin-4-yl)amino]ethyl}thiophen-2-yl)-5-fluorobenzyl]-1H-imidazole-2-carboxamide] | 2750 nM | 8200 nM | 
16 | COc1cc2nc(C)nc(NC(C)c3ccc(-c4ccc(F)cc4CNC(=O)c4cnc[nH]4)s3)c2cc1OC (stereo not drawn) [Example 294, N-[2-(5-{1-[(6,7-dimethoxy-2-methylquinazolin-4-yl)amino]ethyl}thiophen-2-yl)-5-fluorobenzyl]-1H-imidazole-5-carboxamide] | 3100 nM | 8580 nM | 
17 | COc1cc2nc(C)nc(NC(C)c3ccc(-c4ccc(F)cc4CNC(=O)CNCC(F)(F)F)s3)c2cc1OC (stereo not drawn) [Example 295, N-[2-(5-{1-[(6,7-dimethoxy-2-methylquinazolin-4-yl)amino]ethyl}thiophen-2-yl)-5-fluorobenzyl]-N^2-(2,2,2-trifluoroethyl)glycinamide] | 980 nM | 2780 nM | 
18 | COc1cc2nc(C)nc(NC(C)c3ccc(-c4ccccc4CNCCO)s3)c2cc1OC (stereo not drawn) [Example 297, 2-{[2-(5-{1-[(6,7-dimethoxy-2-methylquinazolin-4-yl)amino]ethyl}thiophen-2-yl)benzyl]amino}ethanol] | 46 nM | 60.6 nM | 
19 | COc1cc2nc(C)nc(NC(C)c3ccc(-c4ccccc4CN(C)CCO)s3)c2cc1OC (stereo not drawn) [Example 298, 2-{[2-(5-{1-[(6,7-dimethoxy-2-methylquinazolin-4-yl)amino]ethyl}thiophen-2-yl)benzyl](methyl)amino}ethanol] | 47.2 nM | 58.8 nM | 
20 | COc1cc2nc(C)nc(NC(C)c3ccc(-c4ccc(F)cc4CNC(=O)CNc4ccccc4)s3)c2cc1OC (stereo not drawn) [Example 299, N-[2-(5-{1-[(6,7-dimethoxy-2-methylquinazolin-4-yl)amino]ethyl}thiophen-2-yl)-5-fluorobenzyl]-N^2-phenylglycinamide] | 948 nM | 1880 nM | 
21 | COc1cc2nc(C)nc(NC(C)c3ccc(-c4ccccc4CNCC(F)(F)F)s3)c2cc1OC (stereo not drawn) [Example 300, 6,7-di methoxy-2-methyl-N-{1-[5-(2-{[(2,2,2-trifluoroethyl)amino]methyl}phenyl)thiophen-2-yl]ethyl}quinazolin-4-amine] | 3150 nM | 5080 nM | 
22 | COc1cc2nc(C)nc(NC(C)c3ccc(-c4ccccc4CNc4ccccn4)s3)c2cc1OC (stereo not drawn) [Example 301, 6,7-di methoxy-2-methyl-N-[1-(5-{2-[(pyridin-2-ylamino)methyl]phenyl}thiophen-2-yl)ethyl]quinazolin-4-amine] | 799 nM | 1930 nM | 
23 | COc1cc2nc(C)nc(NC(C)c3ccc(-c4ccccc4CNc4cc[nH]n4)s3)c2cc1OC (stereo not drawn) [Example 302, 6,7-dimethoxy-2-methyl-N-[1-(5-{2-[(1H-pyrazol-3-ylamino)methyl]phenyl}thiophen-2-yl)ethyl]quinazolin-4-amine] | 787 nM | 1540 nM | 
24 | COc1cc2nc(C)nc(NC(C)c3ccc(-c4ccccc4CNCC(=O)N4CCc5ccccc5C4)s3)c2cc1OC (stereo not drawn) [Example 303, 1-(3,4-dihydroisoquinolin-2(1H)-yl)-2-{[2-(5-{1-[(6,7-dimethoxy-2-methylquinazolin-4-yl)amino]ethyl}thiophen-2-yl)benzyl]amino}ethanone] | 724 nM | 880 nM | 
25 | COc1cc2nc(C)nc(NC(C)c3ccc(-c4ccc(F)cc4CNCc4nccn4C)s3)c2cc1OC (stereo not drawn) [Example 304, N-[1-{5-[4-fluoro-2-({[(1-methyl-1H-imidazol-2-yl)methyl]amino}methyl)phenyl]thiophen-2-yl}ethyl]-6,7-dimethoxy-2-methylquinazolin-4-amine] | 417 nM | 399 nM | 
26 | COc1cc2nc(C)nc(NC(C)c3ccc(-c4ccccc4CN4CCNCC4)s3)c2cc1OC (stereo not drawn) [Example 305, 6,7-dimethoxy-2-methyl-N-[1-{5-[2-(piperazin-1-ylmethyl)phenyl]thiophen-2-yl}ethyl]quinazolin-4-amine hydrochloride] | 61.6 nM | 58.4 nM | 
27 | COc1cc2nc(C)nc(NC(C)c3ccc(-c4ccc(F)cc4CNC(C)=O)s3)c2cc1OC (stereo not drawn) [Example 307, N-[2-(5-{1-[(6,7-dimethoxy-2-methylquinazolin-4-yl)amino]ethyl}thiophen-2-yl)-5-fluorobenzyl]acetamide] | 589 nM | 780 nM | 
28 | COc1cc2nc(C)nc(NC(C)c3ccc(-c4ccccc4CN4CCN(C)CC4)s3)c2cc1OC (stereo not drawn) [Example 308, 6,7-dimethoxy-2-methyl-N-[1-(5-{2-[(4-methylpiperazin-1-yl)methyl]phenyl}thiophen-2-yl)ethyl]quinazolin-4-amine] | 260 nM | 220 nM | 
29 | COc1cc2nc(C)nc(NC(C)c3ccc(-c4ccccc4CN[C@H]4CCN(C)C4=O)s3)c2cc1OC (stereo partly drawn) [Example 309, (3S)-{[2-(5-{1-[(6,7-dimethoxy-2-methylquinazolin-4-yl)amino]ethyl}thiophen-2-yl)benzyl]amino}-1-methylpyrrolidin-2-one] | 1320 nM | 880 nM | 
30 | COc1cc2nc(C)nc(NC(C)c3ccc(-c4ccc(F)cc4CNC(=O)c4cc[nH]n4)s3)c2cc1OC (stereo not drawn) [Example 310, N-[2-(5-{1-[(6,7-dimethoxy-2-methylquinazolin-4-yl)amino]ethyl}thiophen-2-yl)-5-fluorobenzyl]-1H-pyrazole-3-carboxamide] | 5820 nM | 5760 nM | 
